Measured values as given in patent publication US8158646B2, “Antifungal and antiparasitic indoloquinoline derivates” (Florida Agricultural and Mechanical University, priority 2006, dated 2012).
Converted amounts (≈) assume the structure as drawn. Like-named read-outs stand apart in the source and are kept apart here. Marks after values point to notes of the source that are not given here.

What was measured:
[1] = test system: methicillin-resistant S. aureus ATCC 43300; assay: Antimicrobial susceptibility testing, MRSA; format: cell-based, Staphylococcus aureus; settings: Methicillin-Resistant Staphylococcus aureus; read-out: IC50 MRSA
Protocol: (§1) Compounds were evaluated in vitro against a panel of microorganisms, including Candida albicans ATCC 90028 (Ca), C. krusei ATCC 6258 (Ck), Cryptococcus neoformans ATCC 90113 (Cn), Staphylococcus aureus ATCC 29213 (Sa), methicillin-resistant S. aureus ATCC 43300 (MRSA), Pseudomonas aeruginosa ATCC 27853 (Pa), Aspergilllus fumigatus ATCC 90906 (Aj), and Mycobacterium intracellulare ATCC 23068 (Mi) as previously reported [Guoyi, M.; Khan, S.; Jacob, M. R; Tekwani, B. L.; Li, Z.; Pasco, D. S.; Walker, L. A.; Khan, 1. A.; Antimicrob Agents Chemother, 2004, 48, 4450-4452]. All organisms were obtained from the American Type Culture Collection (Manassas, Va.). Susceptibility testing was performed using a modified version of the NCCLS methods [a) National Committee for Clinical Laboratory Standards. 2000. Methods for dilution antimicrobial susceptibility tests for bacteria that grow aerobically. M7-A5. National Committee for Clinical Laboratory Standards, Wayne, Pa. b) National Committee for Clinical Laboratory Standards, 1997, Reference method for broth dilution antifungal susceptibility testing of yeasts. Approved standard M27-A. National Committee for Clinical Laboratory Standards, Wayne, Pa. c) National Committee for Clinical Laboratory Standards. 2000. Susceptibility testing of mycobacteria, nocardia, and other aerobic actinomycetes, 2nd ed. Tentative standard M24- T2. National Committee for Clinical Laboratory Standards, Wayne, Pa.] for all organisms except for M intracellulare, for which the modified Alamar blue procedure described by Franzblau et al [1998. J Clin Microbiol, 36, 362-366] was followed. Briefly, samples (dissolved in DMSO) were serially diluted by using 0.9% saline and transferred in duplicate to 96-well microplates. Microbial inocula were prepared after comparison of the absorbance (at 630 nm) of cell suspensions to the 0.5 McFarland standard and dilution of the suspensions in broth (Sabouraud dextrose and cation-adjusted Mueller-Hinton broth [Difco] for the fungi and bacteria, respectively, and 5% Alamar blue [BioSource international] in Middlebrook 7H9 broth with oleic acid-albumin-dextrose-catalase enrichment for M intracellulare) to afford recommended inoculum sizes. Microbial inocula were added to the samples to achieve a final volume of 200 μl and final sample concentrations starting with 100 μg/ml. Growth, solvent, and medium controls were included on each test plate. The plates were read at either 630 nm or excitation and emission wavelengths of 544 and 590 nm (for Mi) prior to and after incubation. Percent growth was calculated and plotted with the concentration tested to afford the concentration that inhibits 50% of growth (IC50). […]

[2] = test system: Staphylococcus aureus ATCC 29213; assay: Antimicrobial susceptibility testing, Sa; format: cell-based; settings: ATCC29213
Protocol: (§2) Compounds were evaluated in vitro against a panel of microorganisms, including Candida albicans ATCC 90028 (Ca), C. krusei ATCC 6258 (Ck), Cryptococcus neoformans ATCC 90113 (Cn), Staphylococcus aureus ATCC 29213 (Sa), methicillin-resistant S. aureus ATCC 43300 (MRSA), Pseudomonas aeruginosa ATCC 27853 (Pa), Aspergilllus fumigatus ATCC 90906 (Aj), and Mycobacterium intracellulare ATCC 23068 (Mi) as previously reported [Guoyi, M.; Khan, S.; Jacob, M. R; Tekwani, B. L.; Li, Z.; Pasco, D. S.; Walker, L. A.; Khan, 1. A.; Antimicrob Agents Chemother, 2004, 48, 4450-4452]. All organisms were obtained from the American Type Culture Collection (Manassas, Va.). Susceptibility testing was performed using a modified version of the NCCLS methods [a) National Committee for Clinical Laboratory Standards. 2000. […] Microbial inocula were prepared after comparison of the absorbance (at 630 nm) of cell suspensions to the 0.5 McFarland standard and dilution of the suspensions in broth (Sabouraud dextrose and cation-adjusted Mueller-Hinton broth [Difco] for the fungi and bacteria, respectively, and 5% Alamar blue [BioSource international] in Middlebrook 7H9 broth with oleic acid-albumin-dextrose-catalase enrichment for M intracellulare) to afford recommended inoculum sizes. […] The plates were read at either 630 nm or excitation and emission wavelengths of 544 and 590 nm (for Mi) prior to and after incubation. […]

[3] = test system: Mycobacterium intracellulare ATCC 23068; assay: Modified Alamar blue procedure, Mi; format: cell-based; settings: ATCC23068, read-out: IC50 Mi
Protocol: as §1

[4] = test system: Pseudomonas aeruginosa ATCC 27853; assay: Antimicrobial susceptibility testing, Pa; format: cell-based; settings: ATCC27853, NA = Not active up to 20 μg/ml
Protocol: as §2

[5] = test system: Aspergillus fumigatus ATCC 90906; assay: Antimicrobial susceptibility testing, Af; format: cell-based; settings: ATCC90906, read-out: IC50 Af
Protocol: as §1

[6] = test system: Plasmodium falciparum W2 Clone; assay: Antimalarial testing, W2 clone; format: cell-based; settings: W2 Clone
Protocol: (§3) Compounds were evaluated in vitro against a panel of microorganisms, including Candida albicans ATCC 90028 (Ca), C. krusei ATCC 6258 (Ck), Cryptococcus neoformans ATCC 90113 (Cn), Staphylococcus aureus ATCC 29213 (Sa), methicillin-resistant S. aureus ATCC 43300 (MRSA), Pseudomonas aeruginosa ATCC 27853 (Pa), Aspergilllus fumigatus ATCC 90906 (Aj), and Mycobacterium intracellulare ATCC 23068 (Mi) as previously reported [Guoyi, M.; Khan, S.; Jacob, M. R; Tekwani, B. L.; Li, Z.; Pasco, D. S.; Walker, L. A.; Khan, 1. A.; Antimicrob Agents Chemother, 2004, 48, 4450-4452]. All organisms were obtained from the American Type Culture Collection (Manassas, Va.). Susceptibility testing was performed using a modified version of the NCCLS methods [a) National Committee for Clinical Laboratory Standards. 2000. Methods for dilution antimicrobial susceptibility tests for bacteria that grow aerobically. M7-A5. National Committee for Clinical Laboratory Standards, Wayne, Pa. b) National Committee for Clinical Laboratory Standards, 1997, Reference method for broth dilution antifungal susceptibility testing of yeasts. Approved standard M27-A. National Committee for Clinical Laboratory Standards, Wayne, Pa. c) National Committee for Clinical Laboratory Standards. 2000. Susceptibility testing of mycobacteria, nocardia, and other aerobic actinomycetes, 2nd ed. Tentative standard M24- T2. National Committee for Clinical Laboratory Standards, Wayne, Pa.] for all organisms except for M intracellulare, for which the modified Alamar blue procedure described by Franzblau et al [1998. J Clin Microbiol, 36, 362-366] was followed. Briefly, samples (dissolved in DMSO) were serially diluted by using 0.9% saline and transferred in duplicate to 96-well microplates. Microbial inocula were prepared after comparison of the absorbance (at 630 nm) of cell suspensions to the 0.5 McFarland standard and dilution of the suspensions in broth (Sabouraud dextrose and cation-adjusted Mueller-Hinton broth [Difco] for the fungi and bacteria, respectively, and 5% Alamar blue [BioSource international] in Middlebrook 7H9 broth with oleic acid-albumin-dextrose-catalase enrichment for M intracellulare) to afford recommended inoculum sizes. Microbial inocula were added to the samples to achieve a final volume of 200 μl and final sample concentrations starting with 100 μg/ml. Growth, solvent, and medium controls were included on each test plate. The plates were read at either 630 nm or excitation and emission wavelengths of 544 and 590 nm (for Mi) prior to and after incubation. Percent growth was calculated and plotted with the concentration tested to afford the concentration that inhibits 50% of growth (IC50). Antimalarial and cytotoxicity testing were conducted in a similar manner as previously reported [a) Muhammad, 1.; Bedir, E.; Khan, S. I.; Tekwani, B. L.; Khan, I. A.; Takamatsu, S.; Pelletier, 1.; Walker, L. A. J Nat Prod. 2004, 67, 772-7. b) Muhammad, 1.; Dunbar, D. C.; Khan, S. 1.; Tekwani, B. L.; Bedir, E.; Takamatsu, S.; Ferreira, D, Walker L A., J Nat Prod. 2003, 66, 962-7].

[7] = test system: Plasmodium falciparum D6 Clone; assay: Antimalarial testing, D6 clone; format: cell-based; settings: D6 Clone
Protocol: (§4) All organisms were obtained from the American Type Culture Collection (Manassas, Va.). Susceptibility testing was performed using a modified version of the NCCLS methods [a) National Committee for Clinical Laboratory Standards. 2000. Methods for dilution antimicrobial susceptibility tests for bacteria that grow aerobically. M7-A5. […] Approved standard M27-A. National Committee for Clinical Laboratory Standards, Wayne, Pa. c) National Committee for Clinical Laboratory Standards. 2000. Susceptibility testing of mycobacteria, nocardia, and other aerobic actinomycetes, 2nd ed. Tentative standard M24- T2. […] Briefly, samples (dissolved in DMSO) were serially diluted by using 0.9% saline and transferred in duplicate to 96-well microplates. Microbial inocula were prepared after comparison of the absorbance (at 630 nm) of cell suspensions to the 0.5 McFarland standard and dilution of the suspensions in broth (Sabouraud dextrose and cation-adjusted Mueller-Hinton broth [Difco] for the fungi and bacteria, respectively, and 5% Alamar blue [BioSource international] in Middlebrook 7H9 broth with oleic acid-albumin-dextrose-catalase enrichment for M intracellulare) to afford recommended inoculum sizes. Microbial inocula were added to the samples to achieve a final volume of 200 μl and final sample concentrations starting with 100 μg/ml. Growth, solvent, and medium controls were included on each test plate. […] Antimalarial and cytotoxicity testing were conducted in a similar manner as previously reported [a) Muhammad, 1.; Bedir, E.; Khan, S. I.; Tekwani, B. L.; Khan, I. A.; Takamatsu, S.; Pelletier, 1.; Walker, L. A. J Nat Prod.

[8] = test system: Cryptococcus neoformans ATCC 90113; assay: Antifungal susceptibility testing (modified NCCLS), Cn; format: cell-based; settings: for IC50 Cn: NA not defined in Table 1
Protocol: as §3

[9] = test system: Vero cells; assay: Cytotoxicity to mammalian cells (Vero); format: cell-based; settings: African green monkey
Protocol: as §4

[10] = test system: Candida albicans ATCC 90028; assay: Antifungal susceptibility testing (modified NCCLS), Ca; format: cell-based; settings: for IC50 Ca: NA not defined in Table 1
Protocol: as §3

[11] = SI = IC50 (vero cells)/IC50 (Pf)

IC50 [1] [µg/mL]	IC50 [2] [µg/mL]	IC50 [4] [µg/mL]	Compound	melting point [°C]	IC50 [3] [µg/mL]	IC50 Cn [8]	IC50 Ca [10] [µg/mL]	other results
			C[n+]1c2ccccc2cc2c1c1ccccc1n2CCCCCn1c2ccccc2c2c1cc1ccccc1[n+]2C (hydrate or solvate) [Compound 12]	238 to 240				
0.15 (≈ 0.453 µM)	0.1 (≈ 0.302 µM)	0.06 (≈ 0.181 µM)	O=C(O)c1cn(C2CC2)c2cc(N3CCNCC3)c(F)cc2c1=O [Ciprofloxacin, reference compound]		0.2 (≈ 0.604 µM)			
3	3	1.5	c1ccc2c(c1)cc1[nH]c3ccccc3c1[n+]2CCCCC[n+]1c2ccccc2cc2[nH]c3ccccc3c21 [Compound 10]		7			IC50 [5]: 20 µg/mL; IC50 ([6]; Plasmodium falciparum, NA = Not active up to 20 μg/ml, read-out: Plasmodium falciparum IC50 Pf (W2)): 1 µg/mL; SI (W2) [6, 11]: >23.8; IC50 ([7]; Plasmodium falciparum, read-out: Plasmodium falciparum IC50 Pf (D6)): 1.3 µg/mL; SI (D6) [7, 11]: >18.3; IC50 ([8]; ATCC90113, NA not defined in Table 1, read-out: IC50 Cn): 1.5 µg/mL; Cytotoxicity (Vero) TC50 [9]: >23.8 µg/mL; no cytotoxicity up to (concentration) [9]: > 23.8 µg/mL; IC50 ([10]; ATCC90028, NA not defined in Table 1, read-out: IC50 Ca): > 50 µg/mL
			Cn1c2ccccc2c2c1cc1ccccc1[n+]2CCCCCc1ccccc1.[Br-] [Compound 7b]			4.3 µg/mL	4.3	
			C[n+]1c(-c2ccccc2)ccc2ccccc21 [Compound 8a]	196 to 198				IC50 ([8]; ATCC90113, read-out: IC50 Cn): 43 µg/mL; IC50 ([10]; ATCC90028, read-out: IC50 Ca): 180 µg/mL
			cryptolepine [Compound 2b, reference compound]			15.6^d μg/ml	0.8 to 180	
